Data reported in patent US7307171B2, “Materials and methods for inhibiting fouling of surfaces exposed to aquatic environments” (priority 2003, dated 2007).
Where two headings read alike, the source gives them in different places.

Assays:
[1] = system: barnacle (Balanus amphitrite) cyprid larvae; assay: Barnacle cyprid larval 24 hour settlement inhibition assay; type: in vivo; details: for IC50: cyprid larvae, 24 hr exposure, probit analysis, interval in parentheses; for Inhibition Pot/Paralytic Pot: ratio of relative settlement inhibition potency to relative crayfish paralytic potency; for Barnacle Larvae Settlement Rel. Pot: relative to 2,3′-BP = 100; for Barnacle Larvae Settlement % Inhib: single concentration, three separate experiments, spread in parentheses; for anti-settlement activity (in words): barnacle larval settlement
Source text: (§1) While the cypris larval stage was used in settlement tests, the second naupliar larval stage was used in toxicity tests. Great care was taken to ensure that the free bases completely dissolved in aged sea water solutions previously filtered to remove particles >than 100 kDa. This was accomplished by diluting (by immediate and thorough vortexing) a 3×10^−2 Molar solution of the free base in methanol at least 1,000-fold into the filtered sea water. Diluted aqueous solutions of the compounds were not refrigerated and were used within an hour of preparation.

[2] = system: barnacle second naupliar larval stage; assay: Barnacle naupliar larval 24 hour toxicity (mortality) assay; type: in vivo, Balanus amphitrite; details: 24 hr mortality, interval in parentheses, read-out: Barnacle Larvae Lethal Median Conc. LC50
Source text: as §1
(§2) All six possible unsubstituted bipyridyls were also tested.

[3] = system: crayfish Procambarus clarkii; details: for Crayfish Acute Paralytic Dose PD50: Table 1, no footnote, P. clarkii, injected into haemocoele, paralysis at 15 min; for Crayfish Paralysis PD50: Table 2, no footnote, paralysis 15 min after injection; for Crayfish Paralysis Rel. Pot: relative to 2,3′-BP = 100; for crayfish paralytic activity (in words): crayfish paralysis assay; for fold less toxic/paralytic than 2,3′-BP in crayfish: injected into crayfish, compared with 2,3′-BP
Description: Each alkaloid, dissolved in 0.9% sodium chloride containing 10 mM Tris buffer (pH 7.4), was injected into the haemocoele which surrounds the heart. Dose per unit weight was kept constant by injecting a variable volume, 0.10 ml per 10 g fresh weight. Paralysis was measured 15 minutes after injection by measuring the animal's ability, after being placed on its back, to right itself within a 2-minute period. Although the convulsive paralytic effect of the bipyridyls reached a peak about 2-minutes after injection, paralysis could be more conveniently measured 15 minutes after injection. Generally, the same number (10-20) of crayfish were injected at each dose, and the dose interval was kept constant. Before the assay, crayfish were tested to ascertain that they could right themselves within a one minute period.
Animals initially develop tremors, then flex their legs, repeatedly flip their tails, then fall on their side in a tonic convulsion within 2-5 minutes after injection. Recovery is appreciable within 15 minutes, the time selected as most convenient for evaluating groups of 5 animals rapidly injected one after another.

[4] = system: crayfish Procambarus clarkii; details: cited from earlier work; for Crayfish Paralysis PD50: Table 2 footnote 1: published previously (Kem, Soti 2001)
[5] = Barnacle naupliar larval 24 hour toxicity (mortality) assay; type: in vivo, Balanus amphitrite; details: Balanus amphitrite, in vivo, other: larvae exposed in sea water solution of the compound; second naupliar stage, 24 hr mortality; interval in parentheses; read-out: Barnacle Larvae Lethal Median Conc. LC50
Source text: as §1, §2

[6] = Table 1 footnote 2: published previously, P. clarkii from Louisiana (Kem, Soti 2001)
[7] = Table 1 footnote 1: published previously, P. clarkii from California (Kem 1976)

Molecule | Inhibition Pot/Paralytic Pot [1] | Barnacle Larvae Settlement Rel. Pot [1] | Barnacle Larvae Settlement % Inhib [1] | Crayfish Paralysis Rel. Pot [3] | anti-settlement activity (in words) [1] | IC50 ([1]; Amphibalanus amphitrite) | LC50 at 24 h [5] | also measured
c1cncc(-c2ccncc2)c1 [3,4′-BP, 3,4′-bipyidyl] | – | – | – | – | – | – | – | IC50 [1]: > 100 µM; LC50 [2]: > 20 µM; Crayfish Acute Paralytic Dose PD50 [3]: 61 µg
Cc1ccc(-c2cccnc2)nc1 [5-Me2,3′-BP, 5-methyl-2,3′-bipyridyl] | 0.96 | 176 | 95 (5) % | 184 | – | – | – | Crayfish Paralysis PD50 [3]: 0.98 µg
1-methyl-2,3′-BP [1-Methyl-2,3′BP, reference compound] | – | – | – | – | low anti-settlement activity | – | – | Crayfish Acute Paralytic Dose PD50 [4, 6]: >800^2 μg; IC50 [1]: > 100 µM; LC50 [2]: > 100 µM; crayfish paralytic activity (in words) [3]: very low paralytic activity
Cc1cccnc1-c1cccnc1 [3-Me2,3′-BP, 3-Methyl-2,3′-bipyridyl] | 2.1 | 63 | 34 (13) % | 30 | – | – | – | Crayfish Paralysis PD50 [4]: 59^1 μg
Cc1cncc(-c2ccccn2)c1 [5′-Me2,3′-BP, 5′-Methyl-2,3′-bipyridyl] | 1.8 | 100 | 54 (28) % | 55 | – | – | – | Crayfish Paralysis PD50 [3]: 3.3 µg
c1ccc(-c2cccnc2)nc1 [2,3′-BP, 2,3′-Bipyridyl] | 1.0 | 100 | 54 (11) % | 100 | – | 4.1 µM | 1.9 µM | Crayfish Acute Paralytic Dose PD50 [4, 7]: 0.88^1 μg; Crayfish Acute Paralytic Dose PD50 [4, 6]: 1.8^2 μg; pKa (physchem): 4.4; Crayfish Paralysis PD50 [3]: 1.8 µg
c1cncc(-c2ccnc(-c3cccnc3)c2)c1 [Nicotelline] | – | – | – | – | displayed an activity similar to nemertelline | – | – | –
2-(thienyl)-pyridine [reference compound] | – | – | – | – | inactivity | – | – | Crayfish Acute Paralytic Dose PD50 [4, 6]: 650^2 μg; IC50 [1]: > 100 µM; LC50 [2]: > 100 µM
nemertelline | – | – | – | – | – | – | – | IC50 [1]: 3.2 µM; Crayfish Acute Paralytic Dose PD50 [3]: >120 µg
c1cncc([C@@H]2CCCCN2)c1 [Anabasine] | – | – | – | – | – | 3 µM | – | Crayfish Acute Paralytic Dose PD50 [3]: 3.9 µg
Cc1ccncc1-c1ccccn1 [4′-Me2,3′-BP, 4′-Methyl-2,3′-bipyridyl] | 56 | 167 | 90 (10) % | 3 | – | – | – | Crayfish Paralysis PD50 [4]: 69^1 μg; fold less toxic/paralytic than 2,3′-BP in crayfish [3]: 33 fold; crayfish paralytic activity as % of 2,3′-BP ([3]; relative to 2,3′-BP): 3%
c1cnc2c(c1)ccc1ncccc12 [1,7-phenanthroline, reference compound] | – | – | – | – | inactive at a 10-fold higher concentration | > 50 µM | > 50 µM | Crayfish Acute Paralytic Dose PD50 [4, 6]: >30^2 μg; crayfish paralytic activity (in words) [3]: low activity
(S)-anabaseine | – | – | – | – | inhibited settlement | – | – | –
c1cc(-c2ccncc2)ccn1 [4,4′-BP, 4,4′-bipyridyl] | – | – | – | – | – | > 100 µM | – | –
c1cncc(C2=NCCCN2)c1 [PTHP, 2-(3-pyridyl)-3,4,5,6-tetrahydropyrimidine, reference compound] | – | – | – | – | relative inactivity | > 100 µM | > 100 µM | Crayfish Acute Paralytic Dose PD50 [4, 6]: 81^2 μg; crayfish paralytic activity (in words) [3]: very low paralytic activity
Cc1cccc(-c2cccnc2)n1 [6-Me2,3′-BP, 6-methyl-2,3′-bipyridyl] | 0.27 | 30 | 16 (16) % | 112 | – | – | – | Crayfish Paralysis PD50 [3]: 1.6 µg
c1cncc(-c2cccnc2)c1 [3,3′-BP, 3,3′-bipyridyl] | – | – | – | – | – | > 100 µM | 10 µM | Crayfish Acute Paralytic Dose PD50 [3]: 17 µg
c1cnc2c(c1)ccc1ccncc12 [1,9-phenanthroline] | – | – | – | – | almost as active as 2,3′-BP | 2 µM | > 50 µM | Crayfish Acute Paralytic Dose PD50 [4, 6]: 3.0^2 μg
Cc1ccc(-c2ccccn2)cn1 [6′-Me2,3′-BP, 6′-Methyl-2,3′-bipyridyl] | 3.7 | 56 | 30 (16) % | 15 | – | – | – | Crayfish Paralysis PD50 [3]: 12 µg
c1ccc(-c2ccncc2)nc1 [2,4′-BP, 2,4′-bipyridyl] | – | – | – | – | – | > 100 µM | > 50 µM | Crayfish Acute Paralytic Dose PD50 [3]: >20 µg
Clc1cccnc1-c1cccnc1 [3-Chloro-2,3′-BP, reference compound] | – | – | – | – | inability of the 3-chloro-2,3′-BP to inhibit settlement at 100 μM | – | – | IC50 [1]: > 100 µM; LC50 [2]: > 50 µM
c1cnc(-c2cccnc2)nc1 [2-(3-pyridyl)-pyrimidine] | – | – | – | – | – | > 50 µM | > 50 µM | Crayfish Acute Paralytic Dose PD50 [4, 6]: 2.6^2 μg
c1cncc(C2=NCCCC2)c1 [Anabaseine, anabaseine] | – | – | – | – | – | 1.2 µM | 2 µM | Crayfish Acute Paralytic Dose PD50 [4, 7]: 3.6^1 μg; crayfish paralytic activity (in words) [3]: slightly less paralytic than 2,3′-BP; fold less toxic/paralytic than 2,3′-BP in crayfish [3]: approximately 4 fold
Cc1ccnc(-c2cccnc2)c1 [4-Me2,3′-BP, 4-Me2,3′-bipyridyl] | 3.1 | 154 | 83 (4) % | 50 | – | – | – | Crayfish Paralysis PD50 [3]: 3.6 µg
c1ccc(-c2ccccn2)nc1 [2,2′-BP, 2,2′-bipyridyl] | – | – | – | – | – | 7 µM | 4.4 µM | Crayfish Acute Paralytic Dose PD50 [3]: >100 µg; fold less toxic/paralytic than 2,3′-BP in crayfish [3]: at least 50 fold
Cc1ncccc1-c1ccccn1 [2′-Me2,3′-BP, 2′-Me2,3′-bipyridyl] | <0.05 | 0 | 0 (33) % | 1 | – | – | – | Crayfish Paralysis PD50 [4]: 210^1 μg
